pIC50, pKi: −log10 of the molar value.

The target in series [1] is Capsid scaffolding protein (Human cytomegalovirus (strain AD169) (HHV-5) (Human herpesvirus 5), UniProt P16753). Kind of series: Concentration required to inhibit the mutant alpha-Ala HCMV protease by 50% was determined.
Series [2] has as its system Human betaherpesvirus 5. Kind of series: Compound was evaluated for antiviral activity measured as percentage inhibition determined at a concentration of 100 (uM) against mutant alpha-Ala HCMV protease. The class given is functional.
The test system of series [3] is Human betaherpesvirus 5. Briefly: Compound was evaluated for antiviral activity measured as percentage inhibition determined at a concentration of 500 (uM) against mutant alpha-Ala HCMV protease. It counts as functional.
Series [4] relates to Human betaherpesvirus 5. Briefly: Binding affinity towards mutant alpha-Ala HCMV protease was determined. It counts as functional.
A further series is filed under the species Homo sapiens. Briefly: Concentration required to inhibit the mammalian elastase by 50% was determined. The class given is functional, organism-based.
The next series concerns the target Acetylcholinesterase (Homo sapiens, UniProt P22303). Kind of series: Concentration required to inhibit the mammalian Acetylcholinesterase by 50% was determined.
The target in another series is Chymotrypsinogen A (Bos taurus, UniProt P00766). Briefly: Concentration required to inhibit the mammalian Chymotrypsinogen by 50% was determined.
A short description of series [5]: Compound was tested for its stability by HPLC method, value expressed as half life. It counts as physicochemical.
In series [6] the test system is Human betaherpesvirus 5. Kind of series: 50 % concentration required to inhibit the mutant alpha-Ala HCMV protease was determined. The class given is functional.
The test system of series [7] is Human betaherpesvirus 5. Kind of series: The compound was evaluated for antiviral activity measured as percentage inhibition determined at a concentration of 100 (uM) against mutant alpha-Ala HCMV protease. It counts as functional.

Chain of Capsid scaffolding protein (P16753 1-256 limits assumed): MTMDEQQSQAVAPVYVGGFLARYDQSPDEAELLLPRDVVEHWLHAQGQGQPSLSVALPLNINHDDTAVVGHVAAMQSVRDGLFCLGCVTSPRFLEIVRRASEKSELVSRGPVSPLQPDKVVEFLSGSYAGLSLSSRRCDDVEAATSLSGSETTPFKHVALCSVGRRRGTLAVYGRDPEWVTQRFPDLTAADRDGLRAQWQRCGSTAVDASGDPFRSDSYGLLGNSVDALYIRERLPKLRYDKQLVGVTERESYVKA
Chain of Acetylcholinesterase (P22303 whole entry): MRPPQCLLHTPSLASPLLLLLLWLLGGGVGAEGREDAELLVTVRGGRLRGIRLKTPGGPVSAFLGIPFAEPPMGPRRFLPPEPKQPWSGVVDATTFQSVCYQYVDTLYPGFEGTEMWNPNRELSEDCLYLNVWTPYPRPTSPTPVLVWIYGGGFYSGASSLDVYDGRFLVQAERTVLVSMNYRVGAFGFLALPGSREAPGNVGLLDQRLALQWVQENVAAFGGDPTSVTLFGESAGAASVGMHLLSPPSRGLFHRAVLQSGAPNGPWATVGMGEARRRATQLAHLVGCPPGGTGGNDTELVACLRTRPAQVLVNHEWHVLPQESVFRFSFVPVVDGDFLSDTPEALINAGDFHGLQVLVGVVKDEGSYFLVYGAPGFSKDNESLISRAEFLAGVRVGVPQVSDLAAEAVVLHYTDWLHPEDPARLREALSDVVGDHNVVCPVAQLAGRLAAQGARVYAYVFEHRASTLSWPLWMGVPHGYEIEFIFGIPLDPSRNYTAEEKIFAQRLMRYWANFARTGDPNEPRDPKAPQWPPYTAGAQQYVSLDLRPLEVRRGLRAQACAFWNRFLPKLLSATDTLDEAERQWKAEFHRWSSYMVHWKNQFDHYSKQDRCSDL

A word on the pIC50: it is the negative decadic logarithm of the IC50, by convention in mol/L. A low value points to a high IC50. As a reminder, the Inhibition is the drop in the measured response relative to a control, in per cent. `C[C@@H]1C(=O)N(C(=O)NCc2ccccc2)[C@@H]1Oc1ccc(C(=O)O)cc1` had a pIC50 in series [1] of under 4.00. Also, the Inhibition in the series on Human betaherpesvirus 5 [2] is 12%.
The matching figures for `CC(=O)O[C@@H]1CC(=O)N1C(=O)NC(C)C`: under 4.00 and 30%.
The compound `CNC(=O)N1CCC1=O` gave an Inhibition in the series on Human betaherpesvirus 5 [3] of 7.7%.
In series [1], `CC(=O)O[C@@H]1[C@@H](C)C(=O)N1C(=O)NCc1ccccc1` had a pIC50 of 5.19.
Consider `CC(=O)OC1CC(=O)N1` (stereo not given), for which, in the series with Human betaherpesvirus 5 [3], the Inhibition stood at 0%.
The term pKi denotes the Ki on a negative log10 scale, so that one unit is a factor of ten. High values mean a small Ki, low ones a large Ki. One may read the half-life as how long it takes for the measured level to halve. In turn, `C[C@H]1C(=O)N(C(=O)NCc2ccccc2)[C@@H]1Oc1ccc(C(=O)O)cc1` had a pKi in the series with Human betaherpesvirus 5 [4] of 5.25. Also, the pIC50 in the series filed under Homo sapiens was 5.41; against Acetylcholinesterase, under 4.00; in series [1] it was 4.70; at Chymotrypsinogen A, 5.80. Besides, in series [5], the half-life was 3.1 h.
As for `CCC1(CC)C(=O)N(C(=O)NC)[C@@H]1OC(C)=O`, the pIC50 in series [1] was under 4.00. For the same compound, the Inhibition with Human betaherpesvirus 5 [2] was determined as 5%.
For the compound `CCNC(=O)N1C(=O)C[C@H]1OC(C)=O`, the pIC50 in [1] was under 4.00. In the series with Human betaherpesvirus 5 [2], this compound showed an Inhibition of 36%.
`C[C@H]1C(=O)N(C(=O)NCc2ccccc2)[C@@H]1Oc1ccc(C(=O)C(C)(C)C)cc1` showed a pKi with Human betaherpesvirus 5 [4] of 5.24. In addition, the pIC50 in the series listed under Homo sapiens is under 4.00; against Acetylcholinesterase, under 4.00; in [1] it was 4.77; against Chymotrypsinogen A, under 4.00. Also, the half-life in series [5] is 22.8 h.
With `CNC(=O)N1C(=O)C[C@H]1OC(C)=O`, the values for the Inhibition with Human betaherpesvirus 5 [3] and with Human betaherpesvirus 5 [2] were 68.5% and 29%, respectively. For the same compound, in the series with Human betaherpesvirus 5 [6], the pIC50 was under 4.00.
In [1], `CC(=O)O[C@@H]1[C@H](C)C(=O)N1C(=O)Nc1ccccc1` showed a pIC50 of under 4.00.
As to `CC(=O)O[C@H]1N(C(=O)NCc2ccccc2)C(=O)C1(C)C`, in series [1], the pIC50 is under 4.00. The compound also displayed an Inhibition with Human betaherpesvirus 5 [2] of 6%.
In the case of `CC(=O)O[C@@H]1[C@@H](C)C(=O)N1C(=O)Nc1ccccc1`, the pIC50 in series [1] is 4.07.
In the series with Human betaherpesvirus 5 [4], `CCCCNC(=O)N1C(=O)C[C@H]1OC(C)=O` had a pKi of 4.59. For the same compound, the pIC50 in series [1] is 4.17.
For the compound `CC[C@H]1C(=O)N(C(=O)NCc2ccccc2)[C@@H]1Oc1ccc(C(=O)O)cc1`, the pKi with Human betaherpesvirus 5 [4] is 5.08. This compound gave a pIC50 in series [1] of 4.30. The half-life in series [5] was 7.6 h.
Compound `CC(=O)O[C@@H]1CC(=O)N1C(=O)NCc1ccccc1` showed a pKi in the series on Human betaherpesvirus 5 [4] of 4.70. Moreover, the pIC50 in series [1] was 4.38. The half-life in [5] is 0.53 h.
As for `C[C@@H]1C(=O)N(C(=O)NCc2ccccc2)[C@@H]1Oc1ccc(C(=O)C(C)(C)C)cc1`, in series [1], the pIC50 was under 4.00. This compound showed an Inhibition with Human betaherpesvirus 5 [2] of 35%.
For the compound `O=C(O)c1ccc(O[C@@H]2CC(=O)N2C(=O)NCc2ccccc2)cc1`, in series [1], the pIC50 was under 4.00. In addition, the half-life in [5] is 1.4 h. In addition, in the series with Human betaherpesvirus 5 [2], the Inhibition was found to be 48%.
In series [1], `CC(C)NC(=O)N1C(=O)C[C@H]1Oc1ccc(C(=O)O)cc1` gave a pIC50 of 4.00. Besides, in the series with Human betaherpesvirus 5 [2], the Inhibition was determined as 8%.
The compound `CC(=O)O[C@@H]1[C@H](C)C(=O)N1C(=O)NCc1ccccc1` gave a pIC50 in [1] of 4.57.
`O=C(O)c1ccc(O[C@@H]2CC(=O)N2C(=O)Nc2ccccc2)cc1` showed a pIC50 in series [1] of under 4.00. The compound further yielded an Inhibition in the series on Human betaherpesvirus 5 [2] of 43%.
In the series on Human betaherpesvirus 5 [7], `CC[C@@H]1C(=O)N(C(=O)NCc2ccccc2)[C@@H]1Oc1ccc(C(=O)O)cc1` gave an Inhibition of 25%. In series [1], this compound had a pIC50 of under 4.00.

These data come from ChEMBL document CHEMBL1130748, “Design and synthesis of monocyclic beta-lactams as mechanism-based inhibitors of human cytomegalovirus protease” (Bioorg Med Chem Lett, 1998).
